Results on eight molecules are retold here after ChEMBL document CHEMBL1145498, “A systematic interaction map of validated kinase inhibitors with Ser/Thr kinases” (Proc Natl Acad Sci U S A, 2007).

In test [1] the target is Cyclin-dependent kinase 16 (Homo sapiens) (UniProt Q00536).
The target in test [2] is Death-associated protein kinase 3 (Homo sapiens) (UniProt O43293).
Test [3] has as its target Mitogen-activated protein kinase 6 (Homo sapiens) (UniProt Q16659).
For test [4], the target named is Serine/threonine-protein kinase pim-3 (Homo sapiens) (UniProt Q86V86).
For test [5], the target named is Serine/threonine-protein kinase 38 (Homo sapiens) (UniProt Q15208).
For test [6], the target named is Mitogen-activated protein kinase 11 (Homo sapiens, UniProt Q15759).
The target in test [7] is Dual specificity protein kinase CLK3 (Homo sapiens) (UniProt P49761).
Test [8] has as its target Cyclin-dependent kinase-like 1 (Homo sapiens) (UniProt Q00532).
The target in test [9] is Serine/threonine-protein kinase PLK1 (Homo sapiens) (UniProt P53350).
Test [10] deals with Tyrosine-protein kinase JAK1 (Homo sapiens) (UniProt P23458).
The target in test [11] is Serine/threonine-protein kinase VRK2 (Homo sapiens) (UniProt Q86Y07).
For test [12], the target named is Calcium/calmodulin-dependent protein kinase type II subunit gamma (Homo sapiens) (UniProt Q13555).
The target in test [13] is Mitogen-activated protein kinase 3 (Homo sapiens, UniProt P27361).
Test [14] has as its target Casein kinase I isoform gamma-1 (Homo sapiens) (UniProt Q9HCP0).
In test [15] the target is cAMP-dependent protein kinase catalytic subunit alpha (Homo sapiens) (UniProt P17612).
The target of test [16] is Serine/threonine-protein kinase PAK 6 (Homo sapiens) (UniProt Q9NQU5).
For test [17], the target named is Serine/threonine-protein kinase pim-2 (Homo sapiens, UniProt Q9P1W9).
The target of test [18] is T1, Calcium/calmodulin-dependent protein kinase type IV (Homo sapiens) (UniProt Q16566).
T1 sequence (whole entry): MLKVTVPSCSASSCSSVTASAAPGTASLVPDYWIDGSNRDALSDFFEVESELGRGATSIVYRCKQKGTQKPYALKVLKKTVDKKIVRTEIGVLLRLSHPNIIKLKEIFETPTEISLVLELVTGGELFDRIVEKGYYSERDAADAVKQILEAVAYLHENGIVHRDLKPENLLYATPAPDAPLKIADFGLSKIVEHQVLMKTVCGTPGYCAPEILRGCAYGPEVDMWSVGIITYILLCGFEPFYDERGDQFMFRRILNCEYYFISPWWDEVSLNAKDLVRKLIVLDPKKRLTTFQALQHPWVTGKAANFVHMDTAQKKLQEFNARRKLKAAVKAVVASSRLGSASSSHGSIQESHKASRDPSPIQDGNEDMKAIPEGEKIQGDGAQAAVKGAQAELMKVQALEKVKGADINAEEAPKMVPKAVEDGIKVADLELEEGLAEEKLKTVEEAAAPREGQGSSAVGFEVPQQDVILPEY

In test [19] the target is Calcium/calmodulin-dependent protein kinase type II subunit alpha (Homo sapiens) (UniProt Q9UQM7).
The target in test [20] is Serine/threonine-protein kinase pim-1 (Homo sapiens) (UniProt P11309).
Test [21] addresses STE20-like serine/threonine-protein kinase (Homo sapiens) (UniProt Q9H2G2).

Sequence of Mitogen-activated protein kinase 3 (P27361 whole entry, canonical isoform): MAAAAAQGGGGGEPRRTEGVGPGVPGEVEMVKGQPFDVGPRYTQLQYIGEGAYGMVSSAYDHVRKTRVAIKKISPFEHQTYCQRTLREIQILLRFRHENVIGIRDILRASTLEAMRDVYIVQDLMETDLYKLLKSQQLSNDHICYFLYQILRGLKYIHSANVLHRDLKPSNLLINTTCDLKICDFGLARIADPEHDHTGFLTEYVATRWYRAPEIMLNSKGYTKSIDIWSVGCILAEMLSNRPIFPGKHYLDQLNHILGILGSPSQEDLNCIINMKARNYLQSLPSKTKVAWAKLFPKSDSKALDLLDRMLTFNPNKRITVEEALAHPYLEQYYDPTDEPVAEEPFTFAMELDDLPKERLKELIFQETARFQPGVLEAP
Sequence of Cyclin-dependent kinase-like 1 (Homo sapiens) (Q00532 whole entry): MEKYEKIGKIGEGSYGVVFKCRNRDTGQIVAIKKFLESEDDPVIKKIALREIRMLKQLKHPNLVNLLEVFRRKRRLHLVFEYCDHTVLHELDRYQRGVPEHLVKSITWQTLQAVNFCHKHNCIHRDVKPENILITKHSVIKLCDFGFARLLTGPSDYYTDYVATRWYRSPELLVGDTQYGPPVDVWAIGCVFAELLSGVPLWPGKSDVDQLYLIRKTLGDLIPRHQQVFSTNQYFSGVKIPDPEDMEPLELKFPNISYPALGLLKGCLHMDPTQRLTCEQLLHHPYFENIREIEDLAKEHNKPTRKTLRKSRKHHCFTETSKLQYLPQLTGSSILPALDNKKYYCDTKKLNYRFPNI
Sequence of Cyclin-dependent kinase 16 (Homo sapiens) (Q00536 whole entry): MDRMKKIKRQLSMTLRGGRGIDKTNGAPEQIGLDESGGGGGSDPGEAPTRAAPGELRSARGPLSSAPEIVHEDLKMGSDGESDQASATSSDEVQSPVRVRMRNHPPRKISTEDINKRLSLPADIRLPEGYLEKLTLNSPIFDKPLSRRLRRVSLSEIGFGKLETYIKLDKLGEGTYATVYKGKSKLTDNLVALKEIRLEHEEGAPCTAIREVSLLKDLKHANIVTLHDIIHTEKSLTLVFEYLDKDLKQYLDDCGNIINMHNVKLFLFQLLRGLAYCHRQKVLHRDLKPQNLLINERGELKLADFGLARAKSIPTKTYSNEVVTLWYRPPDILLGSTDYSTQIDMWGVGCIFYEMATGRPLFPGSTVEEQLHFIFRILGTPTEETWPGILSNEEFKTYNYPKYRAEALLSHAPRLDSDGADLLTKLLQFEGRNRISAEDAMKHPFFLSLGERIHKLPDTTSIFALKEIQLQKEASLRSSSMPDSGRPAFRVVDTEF
Sequence of Serine/threonine-protein kinase PLK1 (Homo sapiens) (P53350 whole entry): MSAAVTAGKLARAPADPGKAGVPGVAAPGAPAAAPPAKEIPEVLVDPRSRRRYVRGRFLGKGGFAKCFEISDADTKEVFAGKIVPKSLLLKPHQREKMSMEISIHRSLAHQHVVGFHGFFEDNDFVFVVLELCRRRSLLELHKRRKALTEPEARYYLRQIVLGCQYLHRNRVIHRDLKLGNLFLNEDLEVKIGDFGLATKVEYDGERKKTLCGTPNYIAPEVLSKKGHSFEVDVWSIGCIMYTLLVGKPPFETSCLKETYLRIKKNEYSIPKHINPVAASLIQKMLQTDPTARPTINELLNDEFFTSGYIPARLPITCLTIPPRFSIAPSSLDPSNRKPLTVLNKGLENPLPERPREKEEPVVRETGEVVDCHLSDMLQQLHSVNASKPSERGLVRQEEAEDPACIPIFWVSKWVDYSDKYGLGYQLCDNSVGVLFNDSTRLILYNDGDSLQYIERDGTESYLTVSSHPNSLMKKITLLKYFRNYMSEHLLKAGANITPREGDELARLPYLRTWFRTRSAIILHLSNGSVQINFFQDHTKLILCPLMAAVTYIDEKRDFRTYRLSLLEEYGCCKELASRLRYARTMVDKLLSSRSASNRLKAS
Sequence of Calcium/calmodulin-dependent protein kinase type II subunit alpha (Homo sapiens) (Q9UQM7 whole entry): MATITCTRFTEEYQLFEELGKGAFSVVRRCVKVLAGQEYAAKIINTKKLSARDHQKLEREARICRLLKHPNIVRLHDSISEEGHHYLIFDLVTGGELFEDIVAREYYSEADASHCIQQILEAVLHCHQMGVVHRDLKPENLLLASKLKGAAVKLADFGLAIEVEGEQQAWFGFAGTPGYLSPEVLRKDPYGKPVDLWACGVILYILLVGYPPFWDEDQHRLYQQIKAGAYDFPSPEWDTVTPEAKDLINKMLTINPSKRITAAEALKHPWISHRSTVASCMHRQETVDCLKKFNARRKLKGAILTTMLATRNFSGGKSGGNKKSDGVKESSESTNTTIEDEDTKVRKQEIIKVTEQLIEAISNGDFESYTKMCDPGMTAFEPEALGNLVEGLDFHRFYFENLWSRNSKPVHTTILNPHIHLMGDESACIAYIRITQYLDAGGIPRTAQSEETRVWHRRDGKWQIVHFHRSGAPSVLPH
Sequence of Mitogen-activated protein kinase 6 (Homo sapiens) (Q16659 whole entry): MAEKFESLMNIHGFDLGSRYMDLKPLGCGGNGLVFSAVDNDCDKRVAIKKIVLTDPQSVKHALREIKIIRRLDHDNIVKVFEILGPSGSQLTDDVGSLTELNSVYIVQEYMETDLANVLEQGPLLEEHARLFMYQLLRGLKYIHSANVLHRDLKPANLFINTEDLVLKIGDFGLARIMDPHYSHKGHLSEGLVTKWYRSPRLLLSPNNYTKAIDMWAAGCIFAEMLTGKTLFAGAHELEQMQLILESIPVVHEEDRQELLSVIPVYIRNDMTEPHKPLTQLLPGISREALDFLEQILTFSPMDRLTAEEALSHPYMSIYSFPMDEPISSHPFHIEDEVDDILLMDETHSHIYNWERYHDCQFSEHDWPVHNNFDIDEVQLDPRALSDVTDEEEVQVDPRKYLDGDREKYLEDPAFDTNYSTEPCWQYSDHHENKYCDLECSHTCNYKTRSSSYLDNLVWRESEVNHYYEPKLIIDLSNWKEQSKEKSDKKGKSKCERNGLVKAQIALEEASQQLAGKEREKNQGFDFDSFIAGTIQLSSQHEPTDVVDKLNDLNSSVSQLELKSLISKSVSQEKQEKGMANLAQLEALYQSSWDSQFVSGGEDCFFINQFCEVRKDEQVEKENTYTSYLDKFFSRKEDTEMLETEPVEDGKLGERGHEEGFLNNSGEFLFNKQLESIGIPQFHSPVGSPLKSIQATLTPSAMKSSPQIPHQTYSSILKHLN
Sequence of Serine/threonine-protein kinase PAK 6 (Homo sapiens) (Q9NQU5 whole entry, looked up): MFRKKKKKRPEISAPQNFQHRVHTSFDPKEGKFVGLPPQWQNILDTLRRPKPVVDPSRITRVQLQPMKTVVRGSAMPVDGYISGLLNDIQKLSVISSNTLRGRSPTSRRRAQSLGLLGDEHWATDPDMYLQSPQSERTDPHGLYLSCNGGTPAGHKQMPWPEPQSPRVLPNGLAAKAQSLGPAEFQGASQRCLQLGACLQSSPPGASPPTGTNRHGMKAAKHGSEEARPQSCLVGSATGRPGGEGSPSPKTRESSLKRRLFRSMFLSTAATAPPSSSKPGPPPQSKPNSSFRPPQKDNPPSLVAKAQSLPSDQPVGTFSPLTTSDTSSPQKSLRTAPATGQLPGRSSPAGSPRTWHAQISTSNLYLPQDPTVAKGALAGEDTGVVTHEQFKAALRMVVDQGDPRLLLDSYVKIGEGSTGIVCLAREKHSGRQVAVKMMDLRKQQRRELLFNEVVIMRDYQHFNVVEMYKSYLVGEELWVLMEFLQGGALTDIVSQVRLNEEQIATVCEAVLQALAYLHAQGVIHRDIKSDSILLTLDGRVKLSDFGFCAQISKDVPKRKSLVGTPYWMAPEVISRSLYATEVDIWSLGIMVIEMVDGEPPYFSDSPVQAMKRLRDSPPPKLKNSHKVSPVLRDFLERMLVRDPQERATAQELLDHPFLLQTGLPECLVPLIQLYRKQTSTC
Sequence of Tyrosine-protein kinase JAK1 (Homo sapiens) (P23458 whole entry): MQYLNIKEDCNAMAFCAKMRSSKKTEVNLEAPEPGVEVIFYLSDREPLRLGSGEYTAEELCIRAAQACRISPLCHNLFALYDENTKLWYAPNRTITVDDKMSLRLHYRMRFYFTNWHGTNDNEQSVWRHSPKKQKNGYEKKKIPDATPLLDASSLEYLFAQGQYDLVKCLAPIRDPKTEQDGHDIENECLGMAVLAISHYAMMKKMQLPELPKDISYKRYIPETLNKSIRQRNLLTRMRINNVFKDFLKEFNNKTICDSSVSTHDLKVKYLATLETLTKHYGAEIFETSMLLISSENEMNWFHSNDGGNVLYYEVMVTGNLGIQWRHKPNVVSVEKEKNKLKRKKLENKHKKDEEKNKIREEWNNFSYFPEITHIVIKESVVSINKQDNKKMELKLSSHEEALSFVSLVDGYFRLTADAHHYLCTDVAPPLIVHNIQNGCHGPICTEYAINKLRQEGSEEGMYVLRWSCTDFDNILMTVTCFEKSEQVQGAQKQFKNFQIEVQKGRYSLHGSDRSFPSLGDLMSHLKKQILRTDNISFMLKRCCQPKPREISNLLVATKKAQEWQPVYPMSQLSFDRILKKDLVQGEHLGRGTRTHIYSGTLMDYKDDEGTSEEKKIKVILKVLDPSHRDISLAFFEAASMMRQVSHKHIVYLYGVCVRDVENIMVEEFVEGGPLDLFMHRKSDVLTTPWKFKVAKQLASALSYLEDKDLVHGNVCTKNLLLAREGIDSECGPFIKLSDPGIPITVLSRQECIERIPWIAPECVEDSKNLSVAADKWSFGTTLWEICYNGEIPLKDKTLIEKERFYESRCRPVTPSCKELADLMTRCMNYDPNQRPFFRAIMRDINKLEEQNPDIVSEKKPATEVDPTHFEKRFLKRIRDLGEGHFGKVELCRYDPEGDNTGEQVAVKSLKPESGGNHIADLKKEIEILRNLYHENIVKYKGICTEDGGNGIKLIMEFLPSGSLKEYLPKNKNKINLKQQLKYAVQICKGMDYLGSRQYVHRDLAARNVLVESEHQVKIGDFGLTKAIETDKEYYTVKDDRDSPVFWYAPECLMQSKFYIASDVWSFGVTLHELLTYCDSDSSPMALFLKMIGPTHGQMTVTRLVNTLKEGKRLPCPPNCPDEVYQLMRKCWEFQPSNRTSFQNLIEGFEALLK

As for `O=C1NC(=O)C(c2c[nH]c3ccccc23)=C1c1c[nH]c2ccccc12`, the ΔTm (in general, the change in melting temperature against a reference sample) was 1.7 °C in [1]; -0.2 °C in test [2]; 0.5 °C in test [3]; 6.3 °C in test [4]; 0.5 °C in test [5]; 0.5 °C in test [6]. For the same molecule, the ΔTm was 2.5 °C in test [7]; 0.6 °C in test [8]; 0.6 °C in test [9]; -0.5 °C in test [10]; 1 °C in test [11]; 2.2 °C in test [12]. For the same molecule, the ΔTm in test [13] stood at 0.1 °C; in test [14], 0.6 °C; in test [15] it was 1.4 °C; in [16], 0.8 °C; in [17] it was 4 °C; in test [18] it was 2.8 °C. Moreover, the results for the ΔTm in test [19], in [20] and in test [21] were 3.3 °C, 5.9 °C and 4.6 °C, respectively.

On to `COC(=O)[C@]1(O)C[C@@H]2O[C@@]1(C)n1c3ccccc3c3c4c(c5c6ccccc6n2c5c31)C(=O)NC4` (single isomer, unassigned), for which the ΔTm was 0.8 °C in [1]; 4.6 °C in [2]; 0.3 °C in test [3]; 5.8 °C in test [4]; 3.9 °C in [5]; 0.7 °C in test [6]. Moreover, the ΔTm in test [7] was 0.6 °C; in test [8], 6.9 °C; in [9], 2.6 °C; in [10], 0.8 °C; in test [11], -0.2 °C; in [12], 6.5 °C. The ΔTm in test [13] was found to be 2 °C; in test [14] it was 0.6 °C; in [15], 7.1 °C; in [16], 9.7 °C; in test [17], 3.8 °C; in test [18] it was 1.8 °C. Also, the thermal shift (ΔTm) in test [19] came out at 3.2 °C; in test [20], 3.7 °C; in [21], 6.3 °C.

With `O=[N+]([O-])c1ccc(-c2nc(-c3ccc(F)cc3)c(-c3ccncc3)[nH]2)cc1`, the ΔTm in test [1] was -0.9 °C; in test [2], 0.1 °C; in test [3], 0.4 °C; in [4] it was 0.7 °C; in [5], 0.9 °C; in [6], 14.8 °C. The ΔTm in [7] is 0.1 °C; in [8], 0 °C; in test [9] it was -1.4 °C; in [10], 3.7 °C; in test [11], 1.5 °C; in test [12] it was -0.3 °C. Moreover, the ΔTm is 0.5 °C in test [13]; 3 °C in [14]; 1.6 °C in [15]; -0.2 °C in test [16]; 0.5 °C in test [17]; -0.2 °C in test [18]. Moreover, the ΔTm in [19] was 2.2 °C; in test [20] it was -1.2 °C; in [21] it was 5.4 °C.

For the molecule `O=C1Nc2cc(Br)ccc2/C1=C1/Nc2ccccc2/C1=N\O`, the ΔTm is -1.7 °C in [1]; 3.1 °C in [2]; -0.2 °C in test [3]; -0.1 °C in [4]; 2.6 °C in [5]; -2.5 °C in test [6]. Also, the ΔTm in [7] is -0.8 °C; in test [8], 1.5 °C; in [9], 0.1 °C; in test [10], 7.1 °C; in [11] it was 0.3 °C; in [12], 4 °C. Besides, the ΔTm in test [13] is 0.7 °C; in [14], 3.5 °C; in test [15] it was 0.5 °C; in test [16], 3.4 °C; in test [17], 0.4 °C; in test [18] it was -0.5 °C. Besides, the ΔTm in [19] was found to be 0.1 °C; in test [20], 0.1 °C; in [21], 4.4 °C.

With `O=C(O)Cc1ccc(O)c([N+](=O)[O-])c1`, the ΔTm in test [1] is -1.2 °C; in test [2] it was 0.5 °C; in [3], 0.8 °C; in test [4], 0.1 °C; in test [5] it was 2 °C; in test [6] it was 0.8 °C. Also, the ΔTm in test [7] is -0.6 °C; in [8], 1.2 °C; in [9] it was 0.4 °C; in test [10] it was -0.3 °C; in test [11], 0.3 °C; in [12], -0.1 °C. In addition, the ΔTm in [13] was -0.2 °C; in [14], 0.3 °C; in test [15], -0.9 °C; in [16] it was -0.9 °C; in test [17], -0.1 °C; in [18] it was 3.3 °C. The figures for the ΔTm in [19], in test [20] and in [21] were 1.4 °C, 0.2 °C and 0 °C, respectively.

For `COc1cc2ncnc(Nc3ccc(F)c(Cl)c3)c2cc1OCCCN1CCOCC1`, the shift in melting temperature (ΔTm) in [1] is -0.3 °C; in test [2], 3.2 °C; in test [3], 0.8 °C; in [4], -0.2 °C; in test [5], 0.5 °C; in test [6], 0.8 °C. For the same molecule, the ΔTm in test [7] was found to be 0.8 °C; in [8] it was 0.2 °C; in [9] it was 1.2 °C; in test [10], 1.2 °C; in [11] it was 0.3 °C; in test [12] it was 0.4 °C. Moreover, the ΔTm in [13] was -0.2 °C; in test [14], 0.5 °C; in test [15], 1.1 °C; in test [16], 0 °C; in [17] it was 0.6 °C; in test [18] it was 0.6 °C. In addition, the ΔTm in [19] turned out to be 0.3 °C; in test [20] it was 3.4 °C; in [21], 7.8 °C.

Take `OC[C@H]1O[C@@H](n2cnc3cc(Cl)c(Cl)cc32)[C@H](O)[C@@H]1O`: the thermal shift (ΔTm) in test [1] was -0.3 °C; in [2], 1.6 °C; in test [3], -0.1 °C; in test [4], 3.1 °C; in [5], 0.2 °C; in test [6], 0 °C. The ΔTm in test [7] is 1.4 °C; in [8] it was -0.2 °C; in test [9], -0.5 °C; in test [10], 0 °C; in test [11], 0 °C; in test [12], 0.1 °C. The ΔTm in test [13] was 0.4 °C; in [14], 0.7 °C; in test [15], 0.4 °C; in test [16], -0.4 °C; in [17], 2.6 °C; in test [18], 0.2 °C. For the same molecule, the results for the ΔTm in test [19], in [20] and in test [21] were 0.8 °C, 3.2 °C and 0.1 °C, respectively.

With `Nc1nccc(-c2c(-c3ccc(F)cc3)ncn2C2CCNCC2)n1`, the ΔTm in test [1] was determined as 0.5 °C; in test [2], 0.8 °C; in test [3], 0.3 °C; in test [4], 0 °C; in test [5], 0.3 °C; in test [7], 0.1 °C. The ΔTm in [8] was determined as 0.4 °C; in test [9], 0.1 °C; in test [10], 0.7 °C; in test [11] it was 0.2 °C; in [12], 0.1 °C; in test [13], 0.5 °C. For the same molecule, the ΔTm in test [14] was 3 °C; in test [15] it was 0.7 °C; in [16] it was -0.5 °C; in [17], 0.2 °C; in [18], 0.2 °C; in [19], 0.4 °C. Besides, the ΔTm was -0.1 °C in test [20] and 1.1 °C in test [21].
